In ChEMBL document CHEMBL1949666, “Inhibition of human monoamine oxidase A and B by 5-phenoxy 8-aminoquinoline analogs” (Bioorg Med Chem Lett, 2012):

Columns and labels:
Homo sapiens = organism: Homo sapiens; experiment: Selectivity index, ratio of IC50 for human recombinant MAOA to IC50 for human recombinant MAOB
[1] = biological target: T1, Amine oxidase [flavin-containing] A (Homo sapiens, UniProt P21397); experiment: Inhibition of human recombinant MAOA assessed as conversion of kynuramine to 4-hydroxyquinoline preincubated for 15 mins by fluorimetric assay
T1 sequence (P21397 whole entry): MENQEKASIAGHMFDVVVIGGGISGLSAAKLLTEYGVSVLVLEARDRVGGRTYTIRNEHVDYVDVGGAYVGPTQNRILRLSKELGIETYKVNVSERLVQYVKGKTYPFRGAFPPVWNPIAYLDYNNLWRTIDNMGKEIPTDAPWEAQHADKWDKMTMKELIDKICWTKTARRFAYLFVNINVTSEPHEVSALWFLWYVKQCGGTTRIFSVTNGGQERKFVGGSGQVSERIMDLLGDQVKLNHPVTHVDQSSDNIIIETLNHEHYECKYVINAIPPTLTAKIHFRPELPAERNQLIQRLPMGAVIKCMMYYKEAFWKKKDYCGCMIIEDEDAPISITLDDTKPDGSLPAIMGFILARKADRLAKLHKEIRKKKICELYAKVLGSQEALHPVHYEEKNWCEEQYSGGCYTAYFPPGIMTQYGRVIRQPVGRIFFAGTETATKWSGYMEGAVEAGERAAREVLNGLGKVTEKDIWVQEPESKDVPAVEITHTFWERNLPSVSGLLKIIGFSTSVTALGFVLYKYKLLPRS

[2] = biological target: T2, Amine oxidase [flavin-containing] B (Homo sapiens, UniProt P27338); experiment: Inhibition of human recombinant MAOB assessed as conversion of kynuramine to 4-hydroxyquinoline preincubated for 15 mins by fluorimetric assay
T2 sequence (P27338 whole entry): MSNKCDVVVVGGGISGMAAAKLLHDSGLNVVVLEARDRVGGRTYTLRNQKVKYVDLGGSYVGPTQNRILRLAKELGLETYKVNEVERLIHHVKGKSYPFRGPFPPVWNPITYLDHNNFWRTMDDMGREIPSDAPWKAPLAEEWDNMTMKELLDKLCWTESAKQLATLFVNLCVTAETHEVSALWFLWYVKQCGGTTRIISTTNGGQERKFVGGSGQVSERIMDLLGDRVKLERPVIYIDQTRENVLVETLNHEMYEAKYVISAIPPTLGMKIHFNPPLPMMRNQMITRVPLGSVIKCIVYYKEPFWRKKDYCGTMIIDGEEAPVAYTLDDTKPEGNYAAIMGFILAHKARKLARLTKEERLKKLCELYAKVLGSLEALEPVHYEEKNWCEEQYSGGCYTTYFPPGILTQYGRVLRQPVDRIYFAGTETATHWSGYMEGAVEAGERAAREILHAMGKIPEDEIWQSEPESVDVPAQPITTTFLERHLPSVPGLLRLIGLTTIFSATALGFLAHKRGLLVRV

Row | SMILES | Ratio IC50 (Homo sapiens) | IC50 [1] [µM] | IC50 [2] [µM]
1 | COc1cc(NC(C)CCCN)c2nccc(C)c2c1Oc1ccc(F)cc1 (stereo unspecified) | 0.29 | 9.7 | 33.4
2 | COc1cc(NC(C)CCCN)c2ncccc2c1 (stereo unspecified) [PRIMAQUINE] | 0.8 | – | 94.5
3 | COc1cc(NC(C)CCCN)c2nccc(C)c2c1Oc1ccc(F)c(F)c1 (stereo unspecified) | 6.22 | 22.7 | 3.65
4 | COc1cc(NC(C)CCCN)c2nccc(C)c2c1Oc1cccc(F)c1 (stereo unspecified) | 0.3 | 3.22 | 10.8
